Experiments:
Assay type in all cases: biochemical
ACE [1] = biological target: T1, ACE (Rattus norvegicus, UniProt P47820); assay: ACE inhibition activity using rat lung (Experiment A-2); details: rat lung membrane fraction, borate buffer pH 8.3
T1 construct: membrane fraction prepared from rat lung; from tissue; host or cells: rat lung, membrane fraction (method of Wu-Wong et al.)
T1 sequence (P47820 36-1313): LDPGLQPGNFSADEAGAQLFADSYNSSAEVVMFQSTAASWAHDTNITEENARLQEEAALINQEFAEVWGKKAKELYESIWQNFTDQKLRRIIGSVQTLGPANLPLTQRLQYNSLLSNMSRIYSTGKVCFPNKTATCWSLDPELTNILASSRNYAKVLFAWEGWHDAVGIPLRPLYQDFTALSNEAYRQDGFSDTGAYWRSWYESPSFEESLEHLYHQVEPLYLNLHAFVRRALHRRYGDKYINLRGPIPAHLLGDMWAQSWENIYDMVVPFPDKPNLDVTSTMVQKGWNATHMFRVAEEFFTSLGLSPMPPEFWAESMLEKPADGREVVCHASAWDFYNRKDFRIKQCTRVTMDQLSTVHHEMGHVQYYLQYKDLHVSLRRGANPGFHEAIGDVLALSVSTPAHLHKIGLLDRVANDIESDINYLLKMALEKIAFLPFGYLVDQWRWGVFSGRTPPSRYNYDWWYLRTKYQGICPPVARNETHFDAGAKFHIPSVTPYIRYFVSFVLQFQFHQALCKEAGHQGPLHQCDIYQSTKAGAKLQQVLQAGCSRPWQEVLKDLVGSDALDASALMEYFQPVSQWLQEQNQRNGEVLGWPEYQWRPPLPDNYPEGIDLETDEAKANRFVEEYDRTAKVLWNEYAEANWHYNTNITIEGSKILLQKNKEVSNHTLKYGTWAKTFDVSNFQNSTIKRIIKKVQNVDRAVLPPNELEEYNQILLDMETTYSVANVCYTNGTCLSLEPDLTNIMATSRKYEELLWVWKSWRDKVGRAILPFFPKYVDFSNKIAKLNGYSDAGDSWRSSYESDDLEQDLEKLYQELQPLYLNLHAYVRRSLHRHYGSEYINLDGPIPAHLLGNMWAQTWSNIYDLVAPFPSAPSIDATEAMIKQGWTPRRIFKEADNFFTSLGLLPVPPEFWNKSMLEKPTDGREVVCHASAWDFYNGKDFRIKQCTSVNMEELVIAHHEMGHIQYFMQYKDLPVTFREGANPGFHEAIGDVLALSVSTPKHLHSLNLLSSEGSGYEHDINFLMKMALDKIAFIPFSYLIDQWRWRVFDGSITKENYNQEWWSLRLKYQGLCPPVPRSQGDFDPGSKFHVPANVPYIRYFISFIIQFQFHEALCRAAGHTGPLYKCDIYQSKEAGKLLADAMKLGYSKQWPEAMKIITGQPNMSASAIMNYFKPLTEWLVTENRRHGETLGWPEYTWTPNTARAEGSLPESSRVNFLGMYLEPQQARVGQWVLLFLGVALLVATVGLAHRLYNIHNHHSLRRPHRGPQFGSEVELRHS
Procedure: (§1) The ACE inhibition activity was determined by using a membrane fraction prepared from rat lung in accordance with the method of Wu-Wong et al. (Characterization of Endthelin Converting Enzyme in Rat Lung., Junshyum R. Wu-Wong, Gerald, P. Budzik, Edward M. Devine and Terry J. Opgenorth, Biochem. Biophys. Res. Commun., 1990, 171, 1291-1296.).
The ACE activity was determined with the use of a modification (modified to a borate buffer, pH 8.3) of the method of Cushman and Cheung (Spectrophotometric Assay and Properties of the Angiotensin-Converting Enzyme of Rabbit Lung., Cushman, D. W. and Cheung H. S., 1971, 20, 1637-1648.).
(§2) In the presence of ACE, the hippurate liberated from hippuryl-histidyl-leucine (Hippuryl-His-Leu (PeptideInstitute Inc., Japan)) was extracted with ethyl acetate and then the absorbance was measured at a wavelength of 228 nm.
(§3) With respect to the ACE inhibition activity, the inhibitor was added to the experimental system as described above in such a manner as to give the final concentrations of 1, 3, 10, 30, 100, 300 and 1000 nM, an inhibition curve was prepared, and then the concentration at which 50% inhibition was achieved was taken as IC50.

NEP [2] = biological target: T2, NEP (Rattus norvegicus, UniProt P07861); assay: NEP inhibition activity using rat renal cortex (Experiment A-1); design: membrane fraction prepared from rat renal cortex; from tissue; host or cells: rat renal cortex, membrane fraction (method of Booth and Kenny); details: rat renal cortex membrane fraction
T2 sequence (P07861 1-750): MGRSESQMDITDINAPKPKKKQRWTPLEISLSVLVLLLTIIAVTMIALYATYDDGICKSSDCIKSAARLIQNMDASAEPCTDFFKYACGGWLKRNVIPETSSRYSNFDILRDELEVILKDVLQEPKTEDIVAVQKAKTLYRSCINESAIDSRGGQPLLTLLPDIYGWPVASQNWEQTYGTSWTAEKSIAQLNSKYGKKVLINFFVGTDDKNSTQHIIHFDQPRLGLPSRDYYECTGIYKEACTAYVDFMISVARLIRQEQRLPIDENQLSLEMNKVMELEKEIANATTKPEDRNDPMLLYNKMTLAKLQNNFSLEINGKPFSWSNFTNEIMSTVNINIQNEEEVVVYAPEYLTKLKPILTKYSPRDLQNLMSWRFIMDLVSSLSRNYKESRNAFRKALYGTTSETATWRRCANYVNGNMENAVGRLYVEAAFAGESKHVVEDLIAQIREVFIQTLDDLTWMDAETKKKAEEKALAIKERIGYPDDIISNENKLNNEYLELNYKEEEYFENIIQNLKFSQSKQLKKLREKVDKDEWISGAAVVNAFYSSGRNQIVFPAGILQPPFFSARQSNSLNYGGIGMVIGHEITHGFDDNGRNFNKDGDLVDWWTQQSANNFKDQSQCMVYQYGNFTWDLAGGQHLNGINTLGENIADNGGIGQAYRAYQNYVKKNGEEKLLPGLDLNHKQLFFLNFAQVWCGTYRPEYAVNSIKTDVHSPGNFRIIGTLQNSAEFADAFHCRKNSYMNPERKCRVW
Procedure: The NEP activity was determined by using a membrane fraction prepared from rat renal cortex in accordance with the method of Booth and Kenny (A Rapid Metod for the Purificaton of Microvilli from Rabbit Kidney., Andrew G. Booth and A. John Kenny, Biochem j., 1974, 142, […].).
The NEP activity was determined by the following manner in accordance with the method of Orlowsky and Wilk (Purification and Specificity of a Membrane-Bound Metalloendopeptidase from Bovine Pituitaries., Marian Orlowsky and Shrwin Wilk, Biochemistry, 1981, 20, 4942-4950.).
(§4) As a substrate, benzoyl-glycyl-arginyl-arginyl-2-naphthylamide (benzoyl-Gly-Arg-Arg-2-naphthylamide (Nova Biochem, Switzerland)) was used. In the presence of an NEP enzyme preparation and excessive leucine aminopeptidase (sigma chemical Co., U.S.A.), the liberated naphthylamine was made to undergo color development with first garnet (Sigma chemical Co., U.S.A.), followed by the measurement of the absorbance at a wavelength of 540 nm.
as §3, with “NEP” for “ACE”

NEP [3] = biological target: T2, NEP; assay: NEP inhibition activity (Experiment E-1); design: membrane fraction prepared from rat renal cortex; from tissue; host or cells: rat renal cortex, membrane fraction (method of Booth and Kenny); details: rat renal cortex membrane fraction
Procedure: As a source of the enzyme NEP, a membrane fraction prepared from rat renal cortex in accordance with the method of Booth and Kenny (A Rapid Method for the Purification of Microvilli from Rabbit Kidney., Andrew G. Booth and A. John Kenny, Biochem. j., 1974, 142,575-581.) was employed. The NEP activity was determined in accordance with the method of Orlowsky and Wilk (Purification and Specificity of a Membrane-Bound Metalloendpeptidase from Bovine Pituitaries., Marian Orlowsky and Shrwin Wilk, Biochemistry, 1981, 20, 4942-4950.). Now the procedure will be briefly described.
as §4, with “(benzoyl-Gly-Arg-Arg-2 naphthylamide” for “(benzoyl-Gly-Arg-Arg-2-naphthylamide”
(§5) To determine the NEP inhibition activity and the ACE inhibition activity, the inhibitor was added to the assay systems of both enzyme activities as described above in such a manner as to give the final concentrations of 1, 3, 10, 30, 100, […] and 1000 nM and inhibition curves were prepared. Then the concentration at which 50% inhibition was achieved was taken as IC50.

ACE [4] = biological target: T1, ACE; assay: ACE inhibition activity (Experiment E-1); details: rat lung membrane fraction, pH 8.3
Procedure: As a source of the enzyme ACE, a membrane fraction prepared from rat lung in accordance with the method of Wu-Wong et al. (Characterization of Endthelin Converting Enzyme in Rat Lung., Jinshyum R. Wu-Wong, Gerald, P. Budzik, Edward M. Devine and Terry J. Opgenorth, Biochem. Biophys. Res. Commun., 1990, 171, 1291-1296.) was used. The ACE activity was determined with the use of a modification (modified to a borate buffer pH 8.3) of the method of Cushman and Cheung (Spectrophotometric Assay and Properties of the Angiotensin-Converting Enzyme of Rabbit Lung., Cushman D. W. and Cheung H. S., 1971, 20, 1637-1648.). Now the procedure will be briefly described.
as §2, §5

NEP [5] = biological target: T2, NEP; assay: NEP inhibition activity (Experiment C-1); details: Table C-1
Procedure: The NEP activity was determined by the following manner in accordance with the method of Orlowsky and Wilk (Purification and Specificity of a Membrane-Bound Metalloendpeptidase from Bovine Pituitaries., Marian Orlowsky and Shrwin Wilk, Biochemistry, 1981, 20, 4942-4950.).
as §4
as §3, with “NEP” for “ACE”, “test compound” for “inhibitor”, “IC50. As a comparative compound, [4S-[4α,7α(R*),12bβ]]-7-[(1-oxo-2-(S)-thio-3-phenyl-propyl)amino]-1,2,3,4,6,7,8,12b-octahydro-6-oxopyrido-[2,1-a][2]benzazepine-4-carboxylic acid was used.” for “IC50.”

ACE [6] = biological target: T1, ACE; assay: ACE inhibition activity using rat lung (Experiment C-2); details: Table C-1; rat lung membrane fraction, borate buffer pH 8.3
Procedure: as §1, with “Gerald” for “Gerald,”
The ACE activity was determined with the use of a modification (modified to a borate buffer, pH 8.3) of the method of Cushman and Cheung (Spectrophotometric Assay and Properties of the Angiotensin-Converting Enzyme of Rabbit Lung., Cushman D. W. and Cheung H. S., 1971, 20, 1637-1648.).
as §2
as §3, with “test compound” for “inhibitor”, “reaction” for “experimental”, “IC50. As a comparative compound, [4S-[4α,7α(R*),12bβ]]-7-[(1-oxo-2-(S)-thio-3-phenyl-propyl)amino]-1,2,3,4,6,7,8,12b-octahydro-6-oxopyrido-[2,1-a][2]benzazepine-4-carboxylic acid was used.” for “IC50.”

| IC50 (ACE [1]) [nM] | IC50 (NEP [2]) [nM] | Structure (SMILES) | further results |
| --- | --- | --- | --- |
| 50 | 90 | O=C(O)CN1C(=O)C(NC(=O)[C@@H](S)Cc2ccccc2)CCc2ccc(-c3ccccc3)cc21 (stereo partly drawn) [Example A-3, 1-Carboxymethyl-3-[(S)-2-mercapto-3-phenylpropionylamino]-8-phenyl-1H-[1]benzazepin-2-one] | – |
| 50 | 160 | CC(C)[C@H](S)C(=O)NC1CCc2ccc(-c3ccccc3)cc2N(CC(=O)O)C1=O (stereo partly shown) [Example A-5] | – |
| 10 | 8.2 | O=C(O)CN1C(=O)C(NC(=O)[C@@H](S)Cc2ccccc2)CCc2ccccc21 (stereo partly drawn) [Example A-7, 1-Carboxymethyl-3-[(S)-2-mercapto-3-phenylpropionylamino]1H-[1]benzazepin-2-one] | – |
| – | – | COc1ccc(C[C@H](S)C(=O)N[C@H]2Cc3ccc(-c4ccccc4)cc3[C@H]3CCC[C@@H](C(=O)O)N3C2=O)cc1 [Example E-7, [4S-[4α,7α(R*),12bβ]]-7-[(S)-2-Mercapto-3-(4-methoxyphenyl)propionylamino]-6-oxo-11-phenyl-1,2,3,4,6,7,8,12b-octahydropyrido[2.1-a][2]benzazepine-4-carboxylic acid] | IC50 (NEP [3]): 45 nM; IC50 (ACE [4]): 11 nM |
| – | – | CC[C@H](C)[C@H](S)C(=O)N[C@H]1Cc2ccc(NS(C)(=O)=O)cc2[C@H]2CCC[C@@H](C(=O)O)N2C1=O [Example C-15, [4S-[4α,7α(R*),12bβ]]-11-Methylsulfonylamino-7-[[(2S,3S)-3-methyl-1-oxo-2-thiopentyl]amino]-6-oxo-1,2,3,4,6,7,8,12b-octahydropyrido[2,1-a][2]benzazepine-4-carboxylic acid] | IC50 (NEP [5]): 6.6 nM; IC50 (ACE [6]): 12.5 nM |
